Patent publication US20190321431A1, “PREPARATION AND APPLICATION OF Syzygium zeylanicum L. EXTRACT” (Tamkang University, priority 2018, published 2019)

Columns and labels:
[1] = molecular target: S. cerevisiae alpha-glucosidase (Saccharomyces cerevisiae, UniProt P53341); assay type: biochemical
Method: (§1) The test steps of this example are as follows. Firstly, the Syzygium zeylanicum L. extract was mixed a buffer (potassium phosphate buffer) with 1:9 volume to produce a Syzygium zeylanicum L. extract solution. The Syzygium zeylanicum L. extract solution and alpha-glucosidase (enzyme) were mixed into the buffer at a volume ratio of 1:1. In this example, 15 μl extract solution and the enzyme were separately mixed into 100 μl buffer at 37° C. for 20 minutes. Then, 50 μl matrix p-nitrophenyl glucopyranoside (pNPG) was added at 37° C. for 40 minutes; then 100 μl, 1 mol/L of Na2CO3 was added to stop the reaction. Finally, the absorbance of OD 410 nm was measured, and calculated the inhibition activity of alpha-glucosidase. The above experimental steps was the subsequent enzyme activity test method of the present invention, and only different conditions, such as extraction solvent, reaction temperature or pH were changed.
(§2) The enzyme activity inhibition test of Example 2 was used in this example. […] The enzymes were S. cerevisiae alpha-glucosidase, rat alpha-glucosidase, B. stearothermophilus alpha-glucoside), porcine pancreatic alpha-amylase, B. subtilis alpha-amylase, and human saliva alpha-amylase.

[2] = molecular target: T1, Porcine pancreatic alpha-amylase (Sus scrofa, UniProt P00690); assay: Enzyme activity inhibition test, porcine pancreatic alpha-amylase; assay type: biochemical
T1 sequence (P00690 16-511): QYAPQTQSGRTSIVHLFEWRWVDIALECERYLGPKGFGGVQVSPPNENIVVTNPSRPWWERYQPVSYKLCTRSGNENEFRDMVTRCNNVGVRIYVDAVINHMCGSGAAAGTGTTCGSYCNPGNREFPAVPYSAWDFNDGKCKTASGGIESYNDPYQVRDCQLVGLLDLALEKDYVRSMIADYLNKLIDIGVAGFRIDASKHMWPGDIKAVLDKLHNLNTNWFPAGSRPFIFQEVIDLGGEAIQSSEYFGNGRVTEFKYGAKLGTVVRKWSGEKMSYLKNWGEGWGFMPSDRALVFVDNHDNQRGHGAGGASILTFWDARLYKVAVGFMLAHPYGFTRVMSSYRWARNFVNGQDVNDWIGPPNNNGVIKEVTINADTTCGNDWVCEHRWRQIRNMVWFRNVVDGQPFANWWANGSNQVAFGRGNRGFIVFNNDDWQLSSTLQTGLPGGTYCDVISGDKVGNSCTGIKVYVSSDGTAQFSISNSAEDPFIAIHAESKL
Method: as §1, §2

Chain of S. cerevisiae alpha-glucosidase (P53341 whole entry): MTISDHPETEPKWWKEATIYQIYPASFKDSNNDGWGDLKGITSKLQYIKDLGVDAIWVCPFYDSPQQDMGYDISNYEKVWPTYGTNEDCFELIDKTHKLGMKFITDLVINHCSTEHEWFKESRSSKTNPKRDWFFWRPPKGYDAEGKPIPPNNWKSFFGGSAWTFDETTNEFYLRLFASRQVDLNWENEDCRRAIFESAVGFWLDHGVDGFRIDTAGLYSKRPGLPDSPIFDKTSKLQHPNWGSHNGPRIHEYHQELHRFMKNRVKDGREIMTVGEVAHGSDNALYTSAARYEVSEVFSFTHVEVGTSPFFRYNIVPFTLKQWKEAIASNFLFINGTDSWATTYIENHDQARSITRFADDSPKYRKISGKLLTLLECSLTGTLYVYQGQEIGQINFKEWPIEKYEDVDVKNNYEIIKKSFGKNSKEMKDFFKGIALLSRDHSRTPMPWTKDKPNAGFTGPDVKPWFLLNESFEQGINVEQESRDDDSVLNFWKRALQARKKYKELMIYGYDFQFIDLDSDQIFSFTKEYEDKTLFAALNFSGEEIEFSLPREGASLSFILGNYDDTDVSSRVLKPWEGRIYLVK

With `C[C@H]1O[C@H](O[C@H]2[C@H](O)[C@@H](O)[C@@H](O[C@H]3[C@H](O)[C@@H](O)C(O)O[C@@H]3CO)O[C@@H]2CO)[C@H](O)[C@@H](O)[C@@H]1N[C@H]1C=C(CO)[C@@H](O)[C@H](O)[C@H]1O` (some centres unmarked) [Acarbose] the “Maximum Inhibitory Activity” value [1] was 64 ± 2.3% and the “Maximum Inhibitory Activity” value [2] was 91 ± 2.5%.
